Reference: paper PMC8070745, “FEN1 Blockade for Platinum Chemo-Sensitization and Synthetic Lethality in Epithelial Ovarian Cancers” (Cancers, 2021)

What was measured:
[1] = test system: BRCA deficient germ-line or platinum-sensitive sporadic epithelial ovarian cancers; parameters: method as in PMID 22452356, PMID 27717299, PMID 28916367, PMID 27908594; settings: maintenance therapy in patients; cited from earlier work
[2] = test system: FEN1 nuclear localization in A2780cis cells; assay: Confocal microscopy of FEN1 nuclear localization, A2780cis; assay type: cell-based, human; settings: pre-treatment with importin β inhibitor (5 µM) followed by cisplatin
Procedure: For PEO1 and PEO4 cells, the cells where keep in culture up to four weeks ([…]) until spheroids structures were formed.
To quantify cell viability, LIVE/DEAD Viability/Cytotoxicity Kit (L3224, Thermo Fisher Scientific) was used. Briefly, the spheroids were harvest by trypsinization, washed with PBS and centrifuge at 1000×g for 5 minutes. The light-protected cellular pellet in PBS was loaded with 0.1µM of Calcein-AM and 1 µM of Ethidium homodimer-1 for 20 minutes at room temperature. The samples were analysed on a Beckman-Coulter FC500 flow cytometer using a 495nm laser for excitation and a 515nm laser for emission data for Calcein AM and a 495nm laser for excitation and emission at 635nm for Ethidium Homodimer-1. In addition, Image J software was used to calculate spheroid diameter. Mean of three diagonal diameters was taken as diameter for each spheroid. At least 10 spheroids were measured. […]
Laboratories). Imaging was carried out using Leica SP2 confocal laser scanning microscope (CLSM) and analysed with ImageJ software (NIH, USA). For analysis a minimum of 100 cells per slide were counted.
On 3D structures, the spheroids were fixed with 4% paraformaldehyde for 30 minutes. […] Imaging was carried out using Leica SP2 confocal laser scanning microscope (CLSM) and analysed with ImageJ software (NIH, USA). […]

A2780cis cells = assay: Clonogenic assay, A2780cis; assay type: cell-based, human; settings: pre-treatment with importin β inhibitor, then cisplatin vs cisplatin only
Procedure: Clonogenic assay: In the clonogenic assay (colony formation assays), 32 cells/cm2 were seeded in 6-well plates and left at 37°C in a 5% CO2 atmosphere. Cisplatin (5µM) and/or FEN1i (10µM) and/or Importazole (5 µM, Selleckem, S8446 ) were added at the indicated concentrations and the plates were left at 37 °C in a 5% CO 2 atmosphere for 14 days. Later, the plates were washed with PBS, fixed and stained with a crystal violet, acetic acid and methanol solution and colonies were counted. […]

Compound | progression-free survival [1] | nuclear localization of FEN1 [2] | effect on cisplatin sensitivity (A2780cis cells)
O=C(c1cc(Cc2n[nH]c(=O)c3ccccc23)ccc1F)N1CCN(C(=O)C2CC2)CC1 [Olaparib] | substantially improves progression-free survival |  | 
CNCc1ccc(-c2[nH]c3cc(F)cc4c3c2CCNC4=O)cc1 [Rucaparib] | substantially improves progression-free survival |  | 
NC(=O)c1cccc2cn(-c3ccc([C@@H]4CCCNC4)cc3)nc12 [Niraparib] | substantially improves progression-free survival |  | 
CC(Nc1nc(N2CCCC2)nc2ccccc12)c1ccccc1 (centres unmarked) [Importanzole] |  | reduced nuclear localization of FEN1 | re-sensitized these cells to cisplatin therapy
